Measurements reported in patent publication US10457654B2 (GENENTECH, INC., priority 2017, dated 2019).
Counter-ions that a name gives are not always drawn. Like-named read-outs stand apart in the source and are kept apart here.

Target: hNav1.7 (Homo sapiens (Human), UniProt Q15858)
Test: Tritiated compound binding to membranes from cells expressing hNav1.7 and the β1 subunit, competitive binding (LBA, Ex. 243A)
Settings: 100 pM [3H]compound, 18 h, room temperature
Procedure: Tritiated Compound Binding to Membranes Isolated from Cells that Heterologously Express hNav1.7 and the β1 Subunit
Preparation of membranes containing recombinantly expressed sodium channels: Frozen recombinant cell pellets were thawed on ice and diluted to 4 times the cell pellet weight with ice cold 50 mM Tris HCl, pH 7.4 buffer. The cell suspensions were homogenized on ice using a motorized glass dounce homogeniser. Homogenates were further diluted 8.4 times with ice cold 50 mM Tris HCl, pH 7.4 buffer and then centrifuged at 200×g at 4° C. for 15 min. The supernatants were collected and centrifuged at 10000×g at 4° C. for 50 min. […] The homogenized membranes were then processed through a syringe equipped with a 26 gauge needle. Protein concentrations were determined by Bradford Assay and the membranes were stored at −80° C.
Radioligand Binding Studies: Saturation experiments. A competitive NaV1.7 inhibitor having a methyl group was tritiated. Three tritiums were incorporated in place of methyl hydrogens to generate [^3H]compound. Binding of this radioligand was performed in 5 mL borosilicate glass test tubes at room temperature. […] Non-specific binding was determined in the presence of 1 μM unlabeled compound. After 18h, the reactants were filtered through GF/C glass fiber filters presoaked in 0.5% w/v polyethylene imine. […] [^3H]compound bound to filters was quantified by liquid scintillation counting.
Competitive binding experiments: Binding reactions were performed in 96-well polypropylene plates at room temperature for 18h. In 360 μL, membranes were incubated with 100 pM [^3H]compound and increasing concentrations of Test Compound. Non-specific binding was defined in the presence of 1 μM unlabeled compound. Reactions were transferred and filtered through 96-well glass fiber/C filter plates presoaked with 0.5% polyethylene imine. The filtered reactions were washed 5 times with 200 μL ice cold buffer containing 0.25% BSA. Bound radioactivity was determined by liquid scintillation counting.
Data Analysis: For saturation experiments, non-specific binding was subtracted from total binding to provide specific binding and these values were recalculated in terms of pmol ligand bound per mg protein. Saturation curves were constructed and dissociation constants were calculated using the single site ligand binding model: Beq=(Bmax*X)/(X+Kd), where Beq is the amount of ligand bound at equilibrium, Bmax is the maximum receptor density, Kd is the dissociation constant for the ligand, and X is the free ligand concentration. For competition studies percent inhibition was determined and IC50 values were calculated using a 4 parameter logistic model (% inhibition=(A+((B−A)/(1+((x/C)^D)))) using XLfit, where A and B are the maximal and minimum inhibition respectively, C is the IC50 concentration and D is the (Hill) slope.

[1] = read-out: Nav1.7 LBA (Ex. 243A) IC50
[2] = read-out: Nav1.7 (LBA) (Ex. 243A)

hNav1.7, sequence (Q15858 whole entry, looked up): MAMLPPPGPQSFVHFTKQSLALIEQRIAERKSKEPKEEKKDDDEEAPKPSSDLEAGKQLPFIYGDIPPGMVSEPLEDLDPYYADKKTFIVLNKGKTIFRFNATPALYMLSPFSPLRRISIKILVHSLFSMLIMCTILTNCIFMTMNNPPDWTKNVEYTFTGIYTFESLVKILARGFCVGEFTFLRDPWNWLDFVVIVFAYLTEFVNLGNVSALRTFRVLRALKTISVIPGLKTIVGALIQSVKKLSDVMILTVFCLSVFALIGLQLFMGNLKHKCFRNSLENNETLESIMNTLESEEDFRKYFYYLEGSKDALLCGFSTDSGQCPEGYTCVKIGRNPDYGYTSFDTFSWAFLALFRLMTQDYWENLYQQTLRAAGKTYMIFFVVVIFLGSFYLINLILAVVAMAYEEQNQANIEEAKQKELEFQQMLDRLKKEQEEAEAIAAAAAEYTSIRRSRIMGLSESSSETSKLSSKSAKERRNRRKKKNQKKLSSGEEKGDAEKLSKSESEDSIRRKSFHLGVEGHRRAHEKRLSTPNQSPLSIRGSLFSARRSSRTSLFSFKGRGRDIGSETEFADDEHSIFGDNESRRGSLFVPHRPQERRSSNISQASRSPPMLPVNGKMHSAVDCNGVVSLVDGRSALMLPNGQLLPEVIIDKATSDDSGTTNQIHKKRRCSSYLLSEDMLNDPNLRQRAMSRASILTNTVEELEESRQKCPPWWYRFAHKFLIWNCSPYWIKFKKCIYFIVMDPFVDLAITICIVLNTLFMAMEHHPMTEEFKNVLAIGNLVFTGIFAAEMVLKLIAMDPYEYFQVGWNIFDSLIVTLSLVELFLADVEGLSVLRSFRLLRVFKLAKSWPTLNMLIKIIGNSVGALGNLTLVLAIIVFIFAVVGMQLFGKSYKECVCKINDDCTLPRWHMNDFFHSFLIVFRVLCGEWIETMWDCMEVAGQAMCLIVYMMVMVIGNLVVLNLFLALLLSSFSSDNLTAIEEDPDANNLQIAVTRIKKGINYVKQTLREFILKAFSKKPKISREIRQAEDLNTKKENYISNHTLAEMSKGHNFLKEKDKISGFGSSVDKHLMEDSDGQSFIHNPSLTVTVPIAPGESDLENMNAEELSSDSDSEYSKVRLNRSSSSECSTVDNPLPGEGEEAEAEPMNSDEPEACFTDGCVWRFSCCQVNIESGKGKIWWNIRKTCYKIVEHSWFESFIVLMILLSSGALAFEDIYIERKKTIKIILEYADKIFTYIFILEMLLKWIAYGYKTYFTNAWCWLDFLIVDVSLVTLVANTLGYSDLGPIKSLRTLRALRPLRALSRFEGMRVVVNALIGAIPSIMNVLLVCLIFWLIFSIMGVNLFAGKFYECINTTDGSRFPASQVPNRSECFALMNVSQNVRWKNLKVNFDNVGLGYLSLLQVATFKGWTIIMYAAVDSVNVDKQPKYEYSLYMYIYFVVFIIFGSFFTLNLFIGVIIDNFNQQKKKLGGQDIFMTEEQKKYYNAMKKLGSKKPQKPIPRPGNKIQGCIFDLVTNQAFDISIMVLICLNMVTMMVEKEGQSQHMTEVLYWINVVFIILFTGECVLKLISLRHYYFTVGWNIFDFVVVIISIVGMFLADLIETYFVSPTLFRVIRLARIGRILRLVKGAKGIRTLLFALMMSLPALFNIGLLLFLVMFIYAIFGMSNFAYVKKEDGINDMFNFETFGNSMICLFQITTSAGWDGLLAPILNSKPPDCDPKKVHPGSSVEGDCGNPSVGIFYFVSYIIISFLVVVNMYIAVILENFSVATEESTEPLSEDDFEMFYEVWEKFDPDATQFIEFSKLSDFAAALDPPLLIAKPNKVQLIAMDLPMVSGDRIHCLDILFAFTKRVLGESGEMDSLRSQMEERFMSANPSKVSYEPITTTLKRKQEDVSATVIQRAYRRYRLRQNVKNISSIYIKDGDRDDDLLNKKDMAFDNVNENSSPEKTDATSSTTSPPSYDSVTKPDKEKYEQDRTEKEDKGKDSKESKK
hNav1.7, sequence (Q07699 whole entry partner, looked up): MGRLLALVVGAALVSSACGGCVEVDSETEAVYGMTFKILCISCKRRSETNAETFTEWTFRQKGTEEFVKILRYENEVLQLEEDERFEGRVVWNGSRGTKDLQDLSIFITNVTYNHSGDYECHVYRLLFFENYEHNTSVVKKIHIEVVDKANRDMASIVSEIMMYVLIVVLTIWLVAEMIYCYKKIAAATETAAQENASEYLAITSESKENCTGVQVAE

SMILES | IC50 [1] [nM] | IC50 [2] [nM]
CN(C[C@H](O)C(F)(F)F)[C@H]1CCCC[C@@H]1Nc1cc(F)c(S(=O)(=O)Nc2nccs2)cc1Cl [Example 94, 5-chloro-2-fluoro-4-(((1S,2S)-2-(methyl((S)-3,3,3-trifluoro-2-hydroxypropyl)amino)cyclohexyl)amino)-N-(thiazol-2-yl)benzenesulfonamide] | 31.3 | 
CN(C)[C@H]1CCCC[C@@H]1Nc1cc(F)c(S(=O)(=O)Nc2ccncn2)cc1Cl [Example 11, 5-chloro-4-(((1S,2S)-2-(dimethylamino)cyclohexyl)amino)-2-fluoro-N-(pyrimidin-4-yl)benzenesulfonamide] |  | 126
CN(C)[C@@H]1CCCC[C@H]1Oc1cc(F)c(S(=O)(=O)Nc2nccs2)cc1C1CC1 [Example 25, 5-cyclopropyl-4-[(1R,2R)-2-(dimethylamino)cyclohexoxy]-2-fluoro-N-thiazol-2-yl-benzenesulfonamide] |  | 7420
CN(CC1CC1)[C@H]1CCCC[C@@H]1Nc1cc(F)c(S(=O)(=O)Nc2nccs2)cc1Cl [Example 31, 5-chloro-4-(((1S,2S)-2-((cyclopropylmethyl)(methyl)amino)cyclohexyl)amino)-2-fluoro-N-(thiazol-2-yl)benzenesulfonamide] | 163 | 
CCN[C@H]1CCCC[C@@H]1Nc1cc(F)c(S(=O)(=O)Nc2nccs2)cc1C1CC1 [Example 64, 5-cyclopropyl-4-(((1S,2S)-2-(ethylamino)cyclohexyl)amino)-2-fluoro-N-(thiazol-2-yl)benzenesulfonamide formate] | 11.6 | 
CC(O)CN(C)[C@H]1CCCC[C@@H]1Nc1cc(F)c(S(=O)(=O)Nc2nccs2)cc1Cl (stereo partly drawn) [Example 45, 5-chloro-2-fluoro-4-(((1 S,2S)-2-((2-hydroxypropyl)(methyl)amino)cyclohexyl)amino)-N-(thiazol-2-yl)benzenesulfonamide] | 12.7 | 
CN(C)[C@@H]1CC[C@H](C(F)(F)F)C[C@H]1Nc1cc(F)c(S(=O)(=O)Nc2nccs2)cc1Cl [Example 84, 5-chloro-4-(((1R,2R,5S)-2-(dimethylamino)-5-(trifluoromethyl)cyclohexyl)amino)-2-fluoro-N-(thiazol-2-yl)benzenesulfonamide] | 3000 | 
CN(C)[C@H]1CCCC[C@@H]1Nc1cc(F)c(S(=O)(=O)Nc2nccs2)cc1Cl [Example 2, 5-chloro-4-(((1S,2S)-2-(dimethylamino)cyclohexyl)amino)-2-fluoro-N-(thiazol-2-yl)benzenesulfonamide] |  | 38.2
CN(CCO)[C@H]1CCCC[C@@H]1Nc1cc(F)c(S(=O)(=O)Nc2cccc(F)n2)cc1Cl [Example 72, 5-chloro-2-fluoro-N-(6-fluoropyridin-2-yl)-4-(((1S,2S)-2-((2-hydroxyethyl)(methyl)amino)cyclohexyl)amino)benzenesulfonamide] | 14.8 | 
CN(C)[C@H]1CCCC[C@@H]1N1CCOc2cc(S(=O)(=O)Nc3nccs3)ccc21 [Example 54, 4-((1 S,2S)-2-(dimethylamino)cyclohexyl)-N-(thiazol-2-yl)-3,4-dihydro-2H-benzo[b][1,4]oxazine-7-sulfonamide] | 97.9 | 
CN(C)[C@H]1CCCC[C@@H]1Nc1cc(F)c(S(=O)(=O)Nc2ncc(Cl)s2)cc1Cl [Example 26, 5-chloro-N-(5-chlorothiazol-2-yl)-4-(((1 S,2S)-2-(dimethylamino)cyclohexyl)amino)-2-fluorobenzenesulfonamide] |  | 41.5

Other lines, results leading:

IC50 [1] [nM] | IC50 [2] [nM] | SMILES
 | 553 | CN(C)[C@@H]1CCC[C@H]1Oc1cc(F)c(S(=O)(=O)Nc2nccs2)cc1Cl [Example 10, 5-chloro-4-(((1R,2R)-2-(dimethylamino)cyclopentyl)oxy)-2-fluoro-N-(thiazol-2-yl)benzenesulfonamide]
 | 3000 | CN(C)[C@@H]1CCCC[C@H]1Oc1cc(F)c(S(=O)(=O)Nc2nccs2)cc1Cl [Example 8, 5-chloro-4-(((1R,2R)-2-(dimethylamino)cyclohexyl)oxy)-2-fluoro-N-(thiazol-2-yl)benzenesulfonamide]
74.4 |  | CC1CCCN1[C@H]1CCCC[C@@H]1Nc1cc(F)c(S(=O)(=O)Nc2nccs2)cc1Cl (stereo partly drawn) [Example 44, 5-chloro-2-fluoro-4-(((1 S,2S)-2-(2-methylpyrrolidin-1-yl)cyclohexyl)amino)-N-(thiazol-2-yl)benzenesulfonamide]
29.3 |  | CN(C)[C@H]1CCCC[C@@H]1Nc1cc(F)c(S(=O)(=O)Nc2nccs2)cc1C(F)(F)F [Example 65, 4-(((1S,2S)-2-(dimethylamino)cyclohexyl)amino)-2-fluoro-N-(thiazol-2-yl)-5-(trifluoromethyl)benzenesulfonamide]
 | 211 | CN[C@H]1CCCC[C@@H]1N(C)c1cc(F)c(S(=O)(=O)Nc2nccs2)cc1Cl [Example 20, 5-chloro-2-fluoro-4-(methyl((1S,2S)-2-(methylamino)cyclohexyl)amino)-N-(thiazol-2-yl)benzenesulfonamide]
116 |  | CN(C)[C@H]1CC[C@@H](C(F)(F)F)C[C@@H]1Nc1cc(F)c(S(=O)(=O)Nc2nccs2)cc1Cl [Example 76, 5-chloro-4-(((1S,2S,5R)-2-(dimethylamino)-5-(trifluoromethyl)cyclohexyl)amino)-2-fluoro-N-(thiazol-2-yl)benzenesulfonamide]
529 |  | O=S(=O)(Nc1nccs1)c1cc(Cl)c(N[C@H]2CCCC[C@@H]2N2CC(O)C2)cc1F [Example 47, 5-chloro-2-fluoro-4-(((1 S,2S)-2-(3-hydroxyazetidin-1-yl)cyclohexyl)amino)-N-(thiazol-2-yl)benzenesulfonamide]
65.5 |  | O=S(=O)(Nc1cccc(F)n1)c1cc(Cl)c(N[C@H]2CCCC[C@@H]2N2CCCC2)cc1F [Example 99, 5-chloro-2-fluoro-N-(6-fluoropyridin-2-yl)-4-(((1S,2S)-2-(pyrrolidin-1-yl)cyclohexyl)amino)benzenesulfonamide]
38.1 |  | CC(O)CN(C)[C@H]1CCCC[C@@H]1Nc1cc(F)c(S(=O)(=O)Nc2cccc(F)n2)cc1Cl (stereo partly drawn) [Example 86, 5-chloro-2-fluoro-N-(6-fluoropyridin-2-yl)-4-(((1S,2S)-2-((2-hydroxypropyl)(methyl)amino)cyclohexyl)amino)benzenesulfonamide]
296 |  | CN(C)[C@H]1CCCC[C@@H]1Nc1cc(F)c(S(=O)(=O)Nc2ccncn2)cc1C1CC1 [Example 69, 5-cyclopropyl-4-(((1S,2S)-2-(dimethylamino)cyclohexyl)amino)-2-fluoro-N-(pyrimidin-4-yl)benzenesulfonamide formate]
37.9 |  | CN(C)[C@H]1CC[C@H](C(F)(F)F)C[C@@H]1Nc1cc(F)c(S(=O)(=O)Nc2nccs2)cc1Cl [Example 75, 5-chloro-4-(((1S,2S,5S)-2-(dimethylamino)-5-(trifluoromethyl)cyclohexyl)amino)-2-fluoro-N-(thiazol-2-yl)benzenesulfonamide]
17.3 |  | O=S(=O)(Nc1nccs1)c1cc(Cl)c(N[C@H]2CCCC[C@@H]2N2CC[C@H](O)C2)cc1F [Example 67, 5-chloro-2-fluoro-4-(((1S,2S)-2-((S)-3-hydroxypyrrolidin-1-yl)cyclohexyl)amino)-N-(thiazol-2-yl)benzenesulfonamide]
93.6 |  | CN(C)[C@@H]1C[C@H](C(F)(F)F)CC[C@H]1Nc1cc(F)c(S(=O)(=O)Nc2nccs2)cc1Cl [Example 36, 5-chloro-4-(((1R,2R,4R)-2-(dimethylamino)-4-(trifluoromethyl)cyclohexyl)amino)-2-fluoro-N-(thiazol-2-yl)benzenesulfonamide]
3.35 |  | CN(C)[C@H]1C[C@@H](C(F)(F)F)CC[C@@H]1Nc1cc(F)c(S(=O)(=O)Nc2nccs2)cc1Cl [Example 82, 5-chloro-4-(((1S,2S,4S)-2-(dimethylamino)-4-(trifluoromethyl)cyclohexyl)amino)-2-fluoro-N-(thiazol-2-yl)benzenesulfonamide]
43.2 |  | CN(C)[C@H]1C[C@H](C(F)(F)F)CC[C@@H]1Nc1cc(F)c(S(=O)(=O)Nc2nccs2)cc1Cl [Example 77, 5-chloro-4-(((1S,2S,4R)-2-(dimethylamino)-4-(trifluoromethyl)cyclohexyl)amino)-2-fluoro-N-(thiazol-2-yl)benzenesulfonamide]
25.5 |  | O=S(=O)(Nc1nccs1)c1cc(Cl)c(N[C@H]2CCCC[C@@H]2N2CCOCC2)cc1F [Example 101, 5-chloro-2-fluoro-4-(((1S,2S)-2-morpholinocyclohexyl)amino)-N-(thiazol-2-yl)benzenesulfonamide]
